One compound from patent US10273240B2, “Cortistatin analogues, syntheses, and uses thereof” (President and Fellows of Harvard College, priority 2015, dated 2019) can be followed below.

Read-outs that look alike come from different tables or passages of the source. Some results are limits rather than exact numbers.

Assay [1] deals with STAT1 S727 phosphorylation. The experiment in a line: IFN-γ-stimulated STAT1 S727 phosphorylation immunoblot. It is filed as cell-based, human. The following applies: MOLM-14 cells. As for the experimental part:
(§1) Kinase Assays. Data was quantified with ImageJ and plotted and fitted with GraphPad Prism 6.0. For STAT1 transactivation domain (TAD), 750 ng of GST-STAT1 TAD (residues 639-750) was incubated with ˜50 ng recombinant CDK8 module at 30° C. for 8 min in kinase buffer (25 mM Tris pH 8, 2 mM DTT, 100 μM cold ATP, 100 mM KCl, 10 mM MgCl2 and 2.5 μCi [γ-^32P] ATP (Perkin Elmer) per reaction). […] 12% SDS-PAGE gels were subsequently silver stained, exposed for 18 h on a Phosphor Screen and imaged (Typhoon 9400, GE Life Sciences). For pol II CTD, 400 ng of GST-CTD (murine sequence) was incubated with ˜40 ng recombinant CDK8 module, 25 ng TFIIH, or 40 ng P-TEFb at 30° C. for 60 min in kinase buffer. Kinase amounts were chosen to give similar total pol II CTD signal. 9% SDS-PAGE gels were silver stained and exposed as above. In vitro FLAG-CDK8 kinase assays used ˜40 ng kinase and 500 ng GST-CTD. For STAT1 or Smad2/3, cells were treated with compound for 1 h followed by IFN-γ or TGF-β1 for 1 h, then washed twice with cold PBS, and lysed (RIPA buffer with inhibitors R0278, P8340, P0044, P5762 Sigma-Aldrich). Standard immunoblotting was then performed with one immunoblot shown. All experiments were performed twice.
(In general: Immunoblotting shows a protein as a band on a membrane.)

The test system of assay [2] is Smad2 T220 and Smad3 T179 phosphorylation. As to the kind of experiment: TGF-β-stimulated Smad2 T220 and Smad3 T179 phosphorylation immunoblot. As to conditions: HaCaT cells. It is filed as cell-based, human. The protocol: as §1
Assay [3] concerns the target T1, ROCK2 in MOLM-14 cell lysate (Homo sapiens, UniProt O75116).
T1 construct: endogenous in cells; host or cells: MOLM-14 cell lysate
As to the kind of experiment: Native kinase capture immunoblot, ROCK2. It is filed as binding. As for the experimental part:
(§2) Native Kinase Capture Immunoblot and Native Kinome-Wide Profiling. […] Experiment was performed twice with one immunoblot shown.

For assay [4], the system named is myeloid, mixed-lineage, and megakaryoblastic leukemia cell lines. As to the kind of experiment: Cell growth assay, leukemia cell lines in general. As to conditions: Homo sapiens, 240 h; 10-day treatment. It is filed as cell-based.
In assay [5] the target is T2, CDK9 in MOLM-14 cell lysate (Homo sapiens, UniProt P50750).
T2 construct: endogenous in cells; host or cells: MOLM-14 cell lysate
T2 sequence (P50750 whole entry): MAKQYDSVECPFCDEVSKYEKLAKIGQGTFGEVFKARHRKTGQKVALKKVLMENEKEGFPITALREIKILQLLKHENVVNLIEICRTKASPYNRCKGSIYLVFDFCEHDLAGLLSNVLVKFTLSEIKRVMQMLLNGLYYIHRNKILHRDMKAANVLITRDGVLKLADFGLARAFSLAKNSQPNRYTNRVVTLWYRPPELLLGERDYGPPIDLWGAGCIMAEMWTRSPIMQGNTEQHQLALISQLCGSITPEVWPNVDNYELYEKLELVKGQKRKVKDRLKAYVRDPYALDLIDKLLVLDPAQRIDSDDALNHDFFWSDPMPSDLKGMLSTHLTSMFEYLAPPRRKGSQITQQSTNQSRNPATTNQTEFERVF
T2 sequence (O60563 whole entry partner): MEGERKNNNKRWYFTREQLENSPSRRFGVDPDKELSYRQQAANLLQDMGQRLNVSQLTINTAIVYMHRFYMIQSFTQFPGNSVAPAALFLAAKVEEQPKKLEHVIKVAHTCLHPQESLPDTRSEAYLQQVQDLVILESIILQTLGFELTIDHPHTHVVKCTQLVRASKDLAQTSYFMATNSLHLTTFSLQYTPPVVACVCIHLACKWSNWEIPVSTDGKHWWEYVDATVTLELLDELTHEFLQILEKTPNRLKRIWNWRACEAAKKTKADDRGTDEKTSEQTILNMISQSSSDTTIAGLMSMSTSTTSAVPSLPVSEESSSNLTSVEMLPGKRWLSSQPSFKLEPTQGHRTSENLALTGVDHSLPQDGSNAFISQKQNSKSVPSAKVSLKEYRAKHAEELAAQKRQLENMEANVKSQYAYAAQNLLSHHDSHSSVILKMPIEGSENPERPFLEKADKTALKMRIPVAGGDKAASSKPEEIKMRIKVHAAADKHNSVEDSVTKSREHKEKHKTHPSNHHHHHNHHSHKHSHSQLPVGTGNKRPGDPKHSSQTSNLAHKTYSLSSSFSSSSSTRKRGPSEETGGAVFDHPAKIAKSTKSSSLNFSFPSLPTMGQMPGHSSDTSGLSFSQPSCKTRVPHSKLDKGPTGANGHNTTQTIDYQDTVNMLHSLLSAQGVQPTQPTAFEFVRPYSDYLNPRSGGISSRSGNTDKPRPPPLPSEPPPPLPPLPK
The experiment in a line: Native kinase capture immunoblot, CDK9. It is filed as binding. As for the experimental part:
as §2

The target in assay [6] is T3, ROCK1 in MOLM-14 cell lysate (Homo sapiens, UniProt Q13464).
T3 construct: endogenous in cells; host or cells: MOLM-14 cell lysate
T3 sequence (Q13464 whole entry): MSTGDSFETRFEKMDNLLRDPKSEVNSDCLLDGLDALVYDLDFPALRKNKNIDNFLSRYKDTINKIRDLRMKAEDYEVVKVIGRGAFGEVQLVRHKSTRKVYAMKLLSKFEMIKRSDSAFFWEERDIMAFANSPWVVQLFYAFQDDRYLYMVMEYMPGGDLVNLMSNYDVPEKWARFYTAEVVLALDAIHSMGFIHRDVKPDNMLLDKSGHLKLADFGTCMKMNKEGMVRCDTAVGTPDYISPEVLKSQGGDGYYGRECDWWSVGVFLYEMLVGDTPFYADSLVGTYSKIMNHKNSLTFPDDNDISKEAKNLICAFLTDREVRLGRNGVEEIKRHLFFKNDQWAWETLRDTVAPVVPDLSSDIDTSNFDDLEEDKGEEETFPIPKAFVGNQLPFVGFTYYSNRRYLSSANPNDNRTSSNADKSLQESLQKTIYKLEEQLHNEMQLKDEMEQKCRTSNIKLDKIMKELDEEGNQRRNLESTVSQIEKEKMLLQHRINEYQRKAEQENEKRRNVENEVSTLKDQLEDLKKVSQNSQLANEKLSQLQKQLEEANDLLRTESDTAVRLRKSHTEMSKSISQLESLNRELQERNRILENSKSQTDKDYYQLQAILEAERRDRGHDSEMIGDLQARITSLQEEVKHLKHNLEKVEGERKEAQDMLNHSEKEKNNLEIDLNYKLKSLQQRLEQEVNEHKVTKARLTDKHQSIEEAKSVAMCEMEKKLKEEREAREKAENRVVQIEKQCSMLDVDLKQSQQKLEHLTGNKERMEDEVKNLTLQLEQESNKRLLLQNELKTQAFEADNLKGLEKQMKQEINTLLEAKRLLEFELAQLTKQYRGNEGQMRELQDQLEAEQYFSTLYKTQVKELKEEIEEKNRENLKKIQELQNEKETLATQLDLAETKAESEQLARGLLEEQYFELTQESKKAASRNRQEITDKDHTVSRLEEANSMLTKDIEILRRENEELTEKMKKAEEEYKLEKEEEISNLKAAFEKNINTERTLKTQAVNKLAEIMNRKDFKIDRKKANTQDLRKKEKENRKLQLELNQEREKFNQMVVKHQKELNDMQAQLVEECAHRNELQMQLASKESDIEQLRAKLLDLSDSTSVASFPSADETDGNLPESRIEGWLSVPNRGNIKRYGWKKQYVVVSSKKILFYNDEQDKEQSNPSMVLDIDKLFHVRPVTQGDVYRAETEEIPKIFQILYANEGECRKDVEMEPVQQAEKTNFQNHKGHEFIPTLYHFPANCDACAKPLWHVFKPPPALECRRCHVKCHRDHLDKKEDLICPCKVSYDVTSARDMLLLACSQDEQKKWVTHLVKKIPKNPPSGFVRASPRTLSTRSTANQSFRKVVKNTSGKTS
As to the kind of experiment: Native kinase capture immunoblot, ROCK1. It is filed as binding. The protocol:
as §2

Assay [7] deals with HCT116. As to the kind of experiment: Cell growth assay, HCT116 (CellTiter-Blue). It is filed as cell-based. The following applies: Homo sapiens. The protocol:
(§3) Cell Culture. All media was supplemented with 100 U/mL penicillin and 100 μg/mL streptomycin. Human cancer cell lines were grown in the following media: MV4; 11, RS4; 11, K562, HEL, MOLM-14, MEG-01 in RPMI-1640, 10% FBS; SET-2 in RPMI-1640, 20% FBS; UKE-1 in RPMI-1640, 10% FBS, 10% horse serum and 1 μM hydrocortisone; SKNO-1 and TF-1 in RPMI-1640, 10% FBS, and 10 or 2 ng/mL GM-CSF, respectively; HaCaT in DMEM, 10% FBS; and HCT116 in McCoy's 5 A, 10% FBS (proliferation assay) or DMEM, 10% FBS (gene expression study). HepG2, MV4;11, RS4;11, MEG-01, TF-1, HCT116 and K562 were from ATCC. SKNO-1 was from DSMZ. HEL, UKE-1, and SET-2 were provided by Ross L. Levine and HaCaT, MV4;11-mCLP, and MOLM-14 by Van Wilson, Andrew L. Kung, and Scott A. Armstrong, respectively. MOLM-14 cells were authenticated by STR profiling and flow cytometry and all cell lines were routinely tested and found to be negative for mycoplasma.

In assay [8] the test system is MOLM-14. The experiment in a line: Cell growth assay, MOLM-14. It is filed as cell-based. The following applies: Homo sapiens. The protocol: All media was supplemented with 100 U/mL penicillin and 100 μg/mL streptomycin. Human cancer cell lines were grown in the following media: MV4; 11, K562, MOLM-14 in RPMI-1640, 10% FBS; SKNO-1 in RPMI-1640, 10% FBS, and 10 ng/mL GM-CSF; MV4;11 and K562 were from ATCC. SKNO-1 was from DSMZ.
as §3

T1 sequence (O75116 whole entry): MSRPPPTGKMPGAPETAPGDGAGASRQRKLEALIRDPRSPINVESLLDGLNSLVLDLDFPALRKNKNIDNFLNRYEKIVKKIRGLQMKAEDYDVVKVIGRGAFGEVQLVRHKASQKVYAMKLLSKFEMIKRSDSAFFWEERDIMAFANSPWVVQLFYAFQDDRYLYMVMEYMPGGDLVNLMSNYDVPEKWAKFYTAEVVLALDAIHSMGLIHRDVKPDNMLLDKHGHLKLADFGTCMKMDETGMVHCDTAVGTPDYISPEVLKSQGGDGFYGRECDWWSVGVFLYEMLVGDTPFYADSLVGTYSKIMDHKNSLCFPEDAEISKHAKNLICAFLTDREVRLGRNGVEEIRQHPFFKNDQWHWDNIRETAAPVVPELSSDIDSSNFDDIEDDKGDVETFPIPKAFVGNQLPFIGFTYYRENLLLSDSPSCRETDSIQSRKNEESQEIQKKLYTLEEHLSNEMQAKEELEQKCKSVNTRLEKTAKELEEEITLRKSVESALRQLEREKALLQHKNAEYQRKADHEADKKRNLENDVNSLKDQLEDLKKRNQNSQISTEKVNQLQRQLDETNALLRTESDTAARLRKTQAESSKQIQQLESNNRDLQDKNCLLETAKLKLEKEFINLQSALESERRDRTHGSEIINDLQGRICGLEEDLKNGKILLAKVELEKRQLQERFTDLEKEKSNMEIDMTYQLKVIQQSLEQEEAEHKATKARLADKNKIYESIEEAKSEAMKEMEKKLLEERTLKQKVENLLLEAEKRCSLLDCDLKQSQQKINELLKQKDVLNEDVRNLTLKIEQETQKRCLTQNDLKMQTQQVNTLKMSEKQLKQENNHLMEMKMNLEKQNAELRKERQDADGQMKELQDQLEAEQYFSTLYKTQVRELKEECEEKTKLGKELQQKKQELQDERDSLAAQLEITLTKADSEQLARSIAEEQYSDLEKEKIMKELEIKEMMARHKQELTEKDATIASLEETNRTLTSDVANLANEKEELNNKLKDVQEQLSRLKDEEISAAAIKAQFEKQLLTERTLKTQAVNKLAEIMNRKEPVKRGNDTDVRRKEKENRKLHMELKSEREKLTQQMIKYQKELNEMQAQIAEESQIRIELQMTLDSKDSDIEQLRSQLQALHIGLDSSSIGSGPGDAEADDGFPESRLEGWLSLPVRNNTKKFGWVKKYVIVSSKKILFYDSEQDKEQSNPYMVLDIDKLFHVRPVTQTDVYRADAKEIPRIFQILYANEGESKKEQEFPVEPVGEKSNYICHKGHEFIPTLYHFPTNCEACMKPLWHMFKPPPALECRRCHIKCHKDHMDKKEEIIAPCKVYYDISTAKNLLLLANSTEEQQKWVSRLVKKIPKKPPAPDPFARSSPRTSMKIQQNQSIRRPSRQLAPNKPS

As to `CN(C)[C@H]1C[C@@]23CC[C@@]4(O2)C(=CC[C@@]2(C)[C@@H](c5ccc6ccncc6c5)CC[C@H]24)C=C3[C@@H](O)[C@@H]1O` [CA, cortistatin A], the “inhibition of STAT1 S727 phosphorylation” value in assay [1] is “dose-dependently inhibited”. For the same compound, in assay [2], the “inhibition of Smad2 T220 and Smad3 T179 phosphorylation” value is “dose-dependently inhibited”. Moreover, the “binding of ROCK2 (no binding up to)” value in assay [3] is on record as greater than 2500 nM. Besides, the GI50 in assay [4] was less than 10 nM; in assay [7] (HCT-116, 168 h, after 7 days, read-out: Mean GI50 (nM), HCT116), greater than 1000 nM; in assay [7] (HCT-116, Table 5, read-out: GI50 (nM), HCT116), greater than 1000 nM; in assay [8] (MOLM-14, 240 h, CA, after 10 days, read-out: Mean GI50 (nM), MOLM-14), 5 nM; in assay [8] (MOLM-14, 240 h, read-out: MOLM14 GI50 day 10) it was 5 nM; in assay [8] (MOLM-14, Table 5, read-out: GI50 (nM), MOLM-14), 5 nM. Besides, the “binding of CDK9 (no binding at up to)” value in assay [5] was greater than 2500 nM. Besides, the “binding of ROCK1 (no binding up to)” value in assay [6] is listed as greater than 2500 nM.

One may read the GI50 as the concentration giving 50% growth inhibition.
